Patent US8609381B2, “Methods to control bacterial growth in fermentation processes” (Dow Brasil Sudeste Industrial Ltda., priority 2007, dated 2013)

What was measured:
yeast = test: Effect of biocide on yeast level (SDA medium plate count); assay type: cell-based; conditions: biocide concentration 50 ppm, 2 hours after contact
Text: (§1) SDA medium is synthetic defined agar, and PCA medium is plate count agar. Dow Antimicrobial™ 7287 is a composition containing 20 percent 2,2-dibromo-3-nitrilopropionamide (DBNPA), sold by The Dow Chemical Company.

bacteria = test: Effect of biocide on bacteria level (PCA medium plate count); assay type: cell-based; conditions: biocide concentration 50 ppm, 2 hours after contact
Text: as §1

| Compound | Yeast level (yeast) | Bacteria level (bacteria) |
| --- | --- | --- |
| O=CCCCC=O [UCARCIDE ™ 250, glutaraldehyde] | 5.0 × 10^4 cfu/ml | 5.0 × 10^5 cfu/ml |
| Diethyl Carbamate | <1.0 × 10^4 cfu/ml | 2.6 × 10^7 cfu/ml |
